Where two headings read alike, the source gives them in different places.
What was measured:
[1] = biological target: T1, CYP1A2 (Homo sapiens, UniProt P05177); settings: given orally to humans; cited from earlier work
T1 sequence (P05177 1-516): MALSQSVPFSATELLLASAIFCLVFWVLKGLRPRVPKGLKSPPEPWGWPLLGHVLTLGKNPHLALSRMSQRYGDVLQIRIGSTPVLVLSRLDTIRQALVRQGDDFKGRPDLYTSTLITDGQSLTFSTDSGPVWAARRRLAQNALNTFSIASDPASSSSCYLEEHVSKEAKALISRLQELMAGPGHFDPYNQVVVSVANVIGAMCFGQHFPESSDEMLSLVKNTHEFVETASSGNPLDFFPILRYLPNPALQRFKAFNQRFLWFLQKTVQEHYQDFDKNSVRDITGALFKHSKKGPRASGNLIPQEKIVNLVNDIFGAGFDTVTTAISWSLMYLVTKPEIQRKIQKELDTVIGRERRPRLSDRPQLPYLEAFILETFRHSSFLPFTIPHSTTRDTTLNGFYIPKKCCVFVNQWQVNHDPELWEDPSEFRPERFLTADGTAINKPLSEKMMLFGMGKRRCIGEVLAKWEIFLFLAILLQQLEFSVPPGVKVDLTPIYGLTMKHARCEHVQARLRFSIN

[2] = tested on: alcohol dehydrogenase; settings: cited from earlier work
[3] = tested on: alcohol dehydrogenase (ADH); test: Breath ketone:alcohol ratio after 2° alcohol taggant; type: in vivo; settings: breath concentrations
Method: The presence (and persistence) of their corresponding ketones (EDIMs) in exhaled breath represents definitive proof of ingestion of a medication containing 2° alcohols (or a 2° alcohol-based ester, carbonate ester, ketal, etc.) as taggants. In general due to increased steric hindrance, 2° alcohols are not as good substrates for ADH relative to 1° alcohols. Likewise, the enzymatic pathways to degrade alcohol-derived ketones appear less efficient than those for alcohol-derived aldehydes.

[4] = biological target: CYP 2D6 (Homo sapiens, UniProt P10635); settings: via CYP 2D6; cited from earlier work
Sequence of CYP 2D6 (P10635 whole entry): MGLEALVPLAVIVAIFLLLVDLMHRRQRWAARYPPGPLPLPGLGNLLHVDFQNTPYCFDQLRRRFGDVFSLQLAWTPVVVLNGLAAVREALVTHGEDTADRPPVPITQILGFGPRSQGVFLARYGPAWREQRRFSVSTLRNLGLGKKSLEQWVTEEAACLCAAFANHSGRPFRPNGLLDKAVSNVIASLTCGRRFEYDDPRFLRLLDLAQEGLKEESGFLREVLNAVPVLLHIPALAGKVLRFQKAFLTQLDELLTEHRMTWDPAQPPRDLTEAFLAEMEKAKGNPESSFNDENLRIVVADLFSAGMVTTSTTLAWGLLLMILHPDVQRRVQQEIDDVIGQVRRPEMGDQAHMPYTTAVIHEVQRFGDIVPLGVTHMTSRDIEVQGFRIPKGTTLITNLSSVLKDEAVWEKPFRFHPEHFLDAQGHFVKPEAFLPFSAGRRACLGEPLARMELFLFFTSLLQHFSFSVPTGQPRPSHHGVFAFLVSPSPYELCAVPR

[5] = at 37° C.; cited from earlier work

**Q.** Which “fraction converted to theophylline” value [1] does the source give for `Cn1c(=O)c2c(ncn2C)n(C)c1=O` [caffeine] here?
**A.** The value was “Approximately 80%”.

**Q.** For `CO` [Methanol, methanol], which “half life in the blood” value ([2]; in the absence of alcohol) is on record?
**A.** Its value is 1.8 to 3.0 h.

**Q.** What about the “half life in the blood” value ([2]; in the presence of alcohol) of the same compound?
**A.** The value was 8 to 24 h.

**Q.** Which “ketone:alcohol ratio 2-butanone/2-butanol” value [3] does the source give for `CCC(C)=O` [2-butanone] here?
**A.** Its value is over 1.

**Q.** For `COc1ccc2c3c1O[C@H]1[C@@H](O)C=C[C@H]4[C@@H](C2)N(C)CC[C@@]341` [codeine], which “fraction converted to morphine in vivo” value [4] is on record?
**A.** Its value is “about 10%”.

**Q.** Which vapor pressure [5] does the source give for `CC(C)c1cccc(C(C)C)c1O` [propofol] here?
**A.** Its vapor pressure is about 0.2 mmHg.
